From patent US20240148686A1, “PHARMACEUTICAL COMPOSITION OF FORSKOLIN-ISOFORSKOLIN AND PENTACYCLIC TRITERPENOID COMPOUND, AND APPLICATION THEREOF” (CHINA PHARMACEUTICAL UNIVERSITY, priority 2021, published 2024)
Marks after values point to notes of the source that are not given here.

Legend:
[1] = system: NAFLD model mice (obesity and fatty liver models induced by a high-fat diet); test: Therapeutic effects on obesity and fatty liver (NAFLD) models induced by a high-fat diet; assay type: in vivo, C57 mice; conditions: for serum FFA content / serum TC content / hepatic TG content: fatty liver model mice, total 20 mg/kg intragastric once a day for 12 weeks, x±s; for serum FFA content / serum TC content: high-fat diet 12 weeks; for hepatic TG content: liver homogenate supernatant
Procedure: (§1) Notes: Statistical analysis is conducted by the GraphPad Prism 8.0 statistical software, and statistical analysis results are analyzed by t-Test. Compared with a model group, *P<0.05 indicates a statistically-significant difference between the groups: **P<0.01, […], and ****P<0.0001.
160 SPF-grade male C57 mice at 8 weeks to 9 weeks were adaptively raised for one week, and then 140 obese mice with a consistent body weight were selected and evenly divided into 14 groups with 10 mice per group, including a model group (M group), a forskolin group (F group), an isoforskolin group (IF group), an asiatic acid group (AA group), an asiaticoside group (AS group), an OA group (OA group), a betulinic acid group (BA group), a forskolin+asiatic acid combined administration group (F+AA group), a forskolin+asiaticoside combined administration group (F+AS group), forskolin+OA combined administration groups (low, medium, and high) (F+OA-1:4, 1:1, and 4:1 groups), a forskolin+betulinic acid combined administration group (F+BA group), and an isoforskolin+OA combined administration group (IF+OA group). The mice were fed by a high-fat diet (including 35% of fat, 26% of carbohydrates, and 26% of proteins) continuously for 12 weeks to establish obesity and fatty liver models, and during the modeling, a drug was intragastrically administered continuously for 12 weeks. The experimental animals were raised in ordinary mouse cages in an environment with a room temperature of 24±2° C., a humidity of 40% to 60%, and a 12 h light/12 h dark cycle.
Administration mode: A drug was prepared with a 0.5% CMC-Na solution as a solvent into a suspension, and the suspension was intragastrically administered once a day continuously for 12 weeks.
The mice were administered with a drug continuously for 12 weeks, and after the last administration, the mice were fasted without water deprivation for 12 h; a body weight of each mouse was measured, eyeballs were removed, blood was collected, and a liver was taken out and weighed; a part of the liver tissue was stored in 4% paraformaldehyde (PFA), and another part of the liver tissue was stored in liquid nitrogen; and inguinal fat was collected from a right thigh of each mouse, weighed, and stored in liquid nitrogen.
A blood sample was allowed to stand in a 4° C. refrigerator for 4 h and then centrifuged at 3,500 rpm for 10 min to 15 min; and a resulting supernatant was collected and tested by a blood bio-chemical analyzer to determine the FFA and TC levels in serum. The liver tissue stored in 4% PFA was frozen and sectioned, and then stained with oil red O to obtain slide specimens. The liver tissue stored in liquid nitrogen was homogenized and then centrifuged, and a resulting supernatant was collected and then tested by a kit to determine a TG content.

[2] = system: chronic liver fibrosis model mice induced by CCl4; test: Therapeutic effects on chronic liver fibrosis model induced by CCl4; assay type: in vivo, C57BL/6 mice; conditions: total 20 mg/kg intragastric once a day for 8 weeks, x±s
Procedure: as §1
140 C57 mice were selected and evenly divided into 14 groups with 10 mice per group, including a model group (M group), a forskolin group (F group), an isoforskolin group (IF group), an asiatic acid group (AA group), an asiaticoside group (AS group), an OA group (OA group), a betulinic acid group (BA group), a forskolin+asiatic acid combined administration group (F+AA group), a forskolin+asiaticoside combined administration group (F+AS group), forskolin+OA combined administration groups (low, medium, and high) (F+OA-1:4, 1:1, and 4:1 groups), a forskolin+betulinic acid combined administration group (F+BA group), and an isoforskolin+OA combined administration group (IF+OA group). Every Thursday and Sunday, all mice each were intraperitoneally injected with a 5% carbon tetrachloride (CCl4)-containing olive oil solution continuously for 8 weeks at an injection volume of 20 mL/kg to obtain a liver fibrosis model caused by chronic liver damage.
Administration mode: A drug was prepared with a 0.5% CMC-Na solution as a solvent into a suspension, and the suspension was intragastrically administered once a day continuously for 8 weeks.
The mice were administered with a drug continuously for 8 weeks, and after the last administration, the mice were fasted without water deprivation for 12 h; a body weight of each mouse was measured, eyeballs were removed, blood was collected, and a liver was taken out and weighed; and a part of the liver tissue was stored in 4% PFA, and another part of the liver tissue was stored in liquid nitrogen.
A blood sample was allowed to stand in a 4° C. refrigerator for 4 h and then centrifuged at 3,500 rpm for 10 min to 15 min; and a resulting supernatant was collected and tested by a kit to determine AST and ALT levels. The liver tissue stored in liquid nitrogen was homogenized and then centrifuged, and a resulting supernatant was collected and then tested by an enzyme-linked immunosorbent assay (ELISA) kit to determine a PCIII content. The liver tissue stored in 4% PFA was dehydrated, fixed, sectioned, and stained to obtain H&E-stained and Sirius red-stained slide specimens.

For `C[C@H]1[C@H](C)CC[C@]2(C(=O)O)CC[C@]3(C)C(=CC[C@@H]4[C@@]5(C)C[C@@H](O)[C@H](O)[C@@](C)(CO)[C@@H]5CC[C@]43C)[C@H]12` [AA, Asiatic acid], the “serum FFA content” value [1] was 1.286 ± 0.143 mmol/L, the “serum TC content” value [1] was 7.26 ± 0.74 mmol/L and the “hepatic TG content” value [1] was 1.17 ± 0.12 mmol/L. For the same compound, the “serum ALT content” value [2] was 815 ± 53* U/L and the “serum AST content” value [2] was 399 ± 22* U/L.

In the case of `C=C(C)[C@@H]1CC[C@]2(C(=O)O)CC[C@]3(C)[C@H](CC[C@@H]4[C@@]5(C)CC[C@H](O)C(C)(C)[C@@H]5CC[C@]43C)[C@@H]12` [BA, Betulinic acid], the “serum FFA content” value [1] is reported as 1.245 ± 0.201 mmol/L, the “serum TC content” value [1] is reported as 7.02 ± 0.63 mmol/L and the “hepatic TG content” value [1] is reported as 1.10 ± 0.08 mmol/L. For the same compound, the “serum ALT content” value [2] was 849 ± 34 U/L and the “serum AST content” value [2] was 422 ± 45* U/L.

`CC1(C)CC[C@]2(C(=O)O)CC[C@]3(C)C(=CC[C@@H]4[C@@]5(C)CC[C@H](O)C(C)(C)[C@@H]5CC[C@]43C)[C@@H]2C1` [OA, Oleanolic acid] was tested, and the “serum FFA content” value [1] was 1.182 ± 0.113* mmol/L, the “serum TC content” value [1] was 6.84 ± 0.54* mmol/L and the “hepatic TG content” value [1] was 1.03 ± 0.09* mmol/L. For the same compound, the “serum ALT content” value [2] was 888 ± 53 U/L and the “serum AST content” value [2] was 436 ± 51 U/L.

Asiaticoside was tested, and the “serum FFA content” value [1] was 1.238 ± 0.186* mmol/L, the “serum TC content” value [1] was 7.09 ± 0.34 mmol/L and the “hepatic TG content” value [1] was 1.18 ± 0.08 mmol/L. For the same compound, the “serum ALT content” value [2] was 882 ± 25 U/L and the “serum AST content” value [2] was 406 ± 63* U/L.

In the case of Forskolin, the “body weight increase (FIG. 1), in words” value ([1]; NAFLD model mice, total 20 mg/kg intragastric daily, 12 weeks) is reported as “can inhibit the increase of a body weight of mice similarly”, the “serum FFA content” value [1] is reported as 1.324 ± 0.124 mmol/L and the “serum TC content” value [1] is reported as 7.44 ± 0.86 mmol/L. For the same compound, the “hepatic TG content” value [1] was 1.01 ± 0.07* mmol/L, the “serum ALT content” value [2] was 922 ± 32 U/L and the “serum AST content” value [2] was 447 ± 31 U/L.
